ChEMBL document CHEMBL2150961, “Serum stability of selected decapeptide agonists of KISS1R using pseudopeptides” (Bioorg Med Chem Lett, 2012)
Starred links: 1 amine or outer side, 2 acyl side, 3 side chain; linkers in the order of their positions; H or OH if unused. Non-standard residues stand in square brackets, D forms with d. Residues, ends and D or L forms follow the SMILES beside them. X1 = O=C(CNC(=S)[C@H](Cc1ccccc1)N[*:1])[*:2]; 2Nal = N[C@@H](Cc1ccc2ccccc2c1)C(=O)O; Arg(Me) = CNC(=N)NCCC[C@H](N)C(=O)O; 3Pal = N[C@@H](Cc1cccnc1)C(=O)O; 4Pal = N[C@@H](Cc1ccncc1)C(=O)O; d4Pal = N[C@H](Cc1ccncc1)C(=O)O; azaGly = NNC(=O)O

Legend:
KiSS-1 receptor [1] = target: T1, KiSS-1 receptor (Homo sapiens, UniProt Q969F8); assay: Binding affinity to human KISS1R
T1 sequence (Q969F8 whole entry): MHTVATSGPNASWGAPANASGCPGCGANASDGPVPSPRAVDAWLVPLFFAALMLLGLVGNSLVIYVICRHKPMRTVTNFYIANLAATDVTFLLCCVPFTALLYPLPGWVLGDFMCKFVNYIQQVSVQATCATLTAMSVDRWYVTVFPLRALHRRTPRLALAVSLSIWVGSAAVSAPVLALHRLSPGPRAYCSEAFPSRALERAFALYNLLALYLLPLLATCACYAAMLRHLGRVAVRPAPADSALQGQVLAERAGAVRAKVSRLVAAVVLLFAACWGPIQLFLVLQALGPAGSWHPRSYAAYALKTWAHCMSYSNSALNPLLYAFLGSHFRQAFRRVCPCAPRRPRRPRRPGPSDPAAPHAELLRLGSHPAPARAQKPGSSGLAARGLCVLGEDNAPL

KiSS-1 receptor [2] = target: KiSS-1 receptor (Rattus norvegicus, UniProt Q924U1); assay: Binding affinity to rat KISS1R
Sequence of KiSS-1 receptor (Rattus norvegicus, UniProt Q924U1) (Q924U1 whole entry): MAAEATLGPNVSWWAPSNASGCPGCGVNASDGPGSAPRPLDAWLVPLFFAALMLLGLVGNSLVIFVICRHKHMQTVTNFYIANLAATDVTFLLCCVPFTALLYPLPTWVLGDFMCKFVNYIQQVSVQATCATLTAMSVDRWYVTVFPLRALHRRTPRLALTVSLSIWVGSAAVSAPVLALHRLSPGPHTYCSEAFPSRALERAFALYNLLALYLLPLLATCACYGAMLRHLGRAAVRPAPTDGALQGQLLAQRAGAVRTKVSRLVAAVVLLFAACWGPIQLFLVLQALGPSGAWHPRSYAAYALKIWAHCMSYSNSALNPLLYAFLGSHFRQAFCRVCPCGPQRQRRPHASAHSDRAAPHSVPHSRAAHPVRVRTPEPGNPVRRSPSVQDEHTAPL

KiSS-1 receptor [3] = target: T1, KiSS-1 receptor; assay: Agonist activity at human KISS1R assessed as induction of intracellular calcium mobilization by fluorometric analysis; format: functional, cell-based
[4] = Metabolic stability of the compound in mouse serum assessed as compound residual ratio at 0.1 mM after 1 hr; format: ADME, cell-free; details: read-out: Stability
[5] = Metabolic stability of the compound in human serum assessed as compound residual ratio after 5 mins; format: ADME, cell-free; details: read-out: Stability
[6] = Metabolic stability of the compound in human serum assessed as compound residual ratio after 10 mins; format: ADME, cell-free; details: read-out: Stability
[7] = Metabolic stability of the compound in human serum assessed as compound residual ratio after 15 mins; format: ADME, cell-free; details: read-out: Stability
Serum = assay: Metabolic stability of the compound in human serum; format: ADME, cell-free
[8] = Half life in human serum; format: ADME, cell-free
[9] = Drug metabolism in mouse plasma at 0.1 mM after 1 min by HPLC-ESI-MS analysis; format: ADME, cell-free; details: read-out: Drug metabolism

Compound | IC50 (KiSS-1 receptor [1]) | IC50 (KiSS-1 receptor [2]) | EC50 (KiSS-1 receptor [3]) | remaining at 1 h, 100 µM [4] | remaining at 5 min [5] | remaining at 10 min [6] | remaining at 0.25 h [7] | Stability (Serum) | half-life [8] | metabolised at 1 min, 100 µM [9]
CC[C@H](C)[C@H](NC(=O)[C@H](CC(N)=O)NC(=O)[C@H](N)Cc1ccc(O)cc1)C(=O)N[C@@H](CC(N)=O)C(=O)N[C@@H](CO)C(=O)N[C@@H](Cc1ccccc1)C(=O)NNC(=O)N[C@@H](CC(C)C)C(=O)N[C@@H](CCCNC(=N)NC)C(=O)N[C@@H](Cc1ccccc1)C(N)=O (H-[dY]NINSF[azaGly]L[Arg(Me)]F-NH2) | 430 pM | 460 pM | 130 pM |  |  |  |  |  |  | 
CNC(N)=NCCC[C@H](NC(=O)[C@H](CC(C)C)NC(=O)NNC(=O)[C@H](Cc1ccccc1)NC(=O)[C@H](CO)NC(=O)[C@H](CC(N)=O)NC(=O)[C@H](CO)NC(=O)[C@H](CC(N)=O)NC(=O)[C@H](N)Cc1ccc(O)cc1)C(=O)N[C@@H](Cc1ccccc1)C(N)=O (H-[dY]NSNSF[azaGly]L[Arg(Me)]F-NH2) | 490 pM | 430 pM | 730 pM | 50% | 86.5% | 85.3% | 86.4% | Stable |  | 
CNC(N)=NCCC[C@H](NC(=O)[C@H](CC(C)C)NC(=O)CNC(=S)[C@H](Cc1ccccc1)NC(=O)[C@H](CO)NC(=O)[C@H](CC(N)=O)NC(=O)[C@H](Cc1c[nH]c2ccccc12)NC(=O)[C@H](CC(N)=O)NC(=O)[C@H](N)Cc1ccc(O)cc1)C(=O)N[C@@H](Cc1ccccc1)C(N)=O (H-[dY]NWNS[X1]L[Arg(Me)]F-NH2) | 2800 pM | 3300 pM | 41 pM | 35.3% |  |  |  |  |  | 
CNC(N)=NCCC[C@H](NC(=O)[C@H](CC(C)C)NC(=O)NNC(=O)[C@H](Cc1ccccc1)NC(=O)[C@H](CO)NC(=O)[C@H](CC(N)=O)NC(=O)[C@H](CC1CCCCC1)NC(=O)[C@H](CC(N)=O)NC(=O)[C@H](N)Cc1ccc(O)cc1)C(=O)N[C@@H](Cc1ccccc1)C(N)=O | 190 pM | 240 pM | 100 pM | 32% |  |  |  |  |  | 
CNC(=N)NCCC[C@H](NC(=O)[C@H](CC(C)C)NC(=O)NNC(=O)[C@H](Cc1ccccc1)NC(=O)[C@H](CO)NC(=O)[C@H](CC(N)=O)NC(=O)[C@H](Cc1c[nH]c2ccccc12)NC(=O)[C@H](CC(N)=O)NC(=O)[C@H](N)Cc1ccc(O)cc1)C(=O)N[C@@H](Cc1ccccc1)C(N)=O | 160 pM |  |  | 39.5% |  |  |  |  |  | 
CNC(N)=NCCC[C@H](NC(=O)[C@H](CC(C)C)NC(=O)NNC(=O)[C@H](Cc1ccccc1)NC(=O)[C@H](CO)NC(=O)[C@H](CC(N)=O)NC(=O)[C@@H](NC(=O)[C@H](CC(N)=O)NC(=O)[C@H](N)Cc1ccc(O)cc1)[C@@H](C)O)C(=O)N[C@@H](Cc1ccccc1)C(N)=O (H-[dY]NTNSF[azaGly]L[Arg(Me)]F-NH2) | 860 pM | 830 pM | 240 pM | 62.5% |  |  |  |  |  | 
CNC(=N)NCCC[C@H](NC(=O)[C@H](CC(C)C)NC(=O)NNC(=O)[C@H](Cc1ccccc1)NC(=O)[C@H](CO)NC(=O)[C@H](CC(N)=O)NC(=O)[C@H](Cc1ccc2ccccc2c1)NC(=O)[C@H](CC(N)=O)NC(=O)[C@H](N)Cc1ccc(O)cc1)C(=O)N[C@@H](Cc1ccccc1)C(N)=O (H-[dY]N[2Nal]NSF[azaGly]L[Arg(Me)]F-NH2) | 130 pM | 200 pM | 98 pM | 43.6% |  |  |  |  |  | 
CNC(N)=NCCC[C@H](NC(=O)[C@H](CC(C)C)NC(=O)CNC(=O)[C@H](Cc1ccccc1)NC(=O)[C@H](CO)NC(=O)[C@H](CC(N)=O)NC(=O)[C@H](Cc1c[nH]c2ccccc12)NC(=O)[C@H](CC(N)=O)NC(=O)[C@H](N)Cc1ccc(O)cc1)C(=O)N[C@@H](Cc1ccccc1)C(N)=O | 110 pM |  | 65 pM | 18.1% | 90.7% | 85.8% | 82.7% |  | 1.25 h | 
CNC(N)=NCCC[C@H](NC(=O)[C@H](CC(C)C)NC(=O)NNC(=O)[C@H](Cc1ccccc1)NC(=O)[C@H](CO)NC(=O)[C@H](CC(N)=O)NC(=O)[C@H](Cc1ccncc1)NC(=O)[C@H](CC(N)=O)NC(=O)[C@H](N)Cc1ccc(O)cc1)C(=O)N[C@@H](Cc1ccccc1)C(N)=O (H-[dY]N[4Pal]NSF[azaGly]L[Arg(Me)]F-NH2) | 300 pM | 280 pM | 110 pM | 30.7% |  |  |  |  |  | 
CNC(N)=NCCC[C@H](NC(=O)[C@H](CC(C)C)NC(=O)NNC(=O)[C@H](Cc1ccccc1)NC(=O)[C@H](CO)NC(=O)[C@H](CC(N)=O)NC(=O)[C@@H](Cc1ccncc1)NC(=O)[C@H](CC(N)=O)NC(=O)[C@H](N)Cc1ccc(O)cc1)C(=O)N[C@@H](Cc1ccccc1)C(N)=O (H-[dY]N[d4Pal]NSF[azaGly]L[Arg(Me)]F-NH2) | 280 pM | 280 pM | 590 pM |  |  |  |  |  |  | 
CNC(N)=NCCC[C@H](NC(=O)[C@H](CC(C)C)NC(=O)CC(=O)N[C@H](Cc1ccccc1)NC(=O)[C@H](CO)NC(=O)[C@H](CC(N)=O)NC(=O)[C@H](Cc1c[nH]c2ccccc12)NC(=O)[C@H](CC(N)=O)NC(=O)[C@H](N)Cc1ccc(O)cc1)C(=O)N[C@@H](Cc1ccccc1)C(N)=O | 510 pM | 2900 pM | 950 pM | 46.8% |  |  |  |  |  | 
CNC(=N)NCCC[C@H](NC(=O)[C@H](CC(C)C)NC(=O)NNC(=O)[C@H](Cc1ccccc1)NC(=O)[C@H](CO)NC(=O)[C@H](CC(N)=O)NC(=O)[C@H](Cc1cccnc1)NC(=O)[C@H](CC(N)=O)NC(=O)[C@H](N)Cc1ccc(O)cc1)C(=O)N[C@@H](Cc1ccccc1)C(N)=O (H-[dY]N[3Pal]NSF[azaGly]L[Arg(Me)]F-NH2) | 700 pM | 890 pM | 240 pM | 50.6% |  |  |  |  |  | 
CC(C)C[C@H](NC(=O)CNC(=O)[C@H](Cc1ccccc1)NC(=O)[C@H](CO)NC(=O)[C@H](CC(N)=O)NC(=O)[C@H](Cc1c[nH]c2ccccc12)NC(=O)[C@H](CC(N)=O)NC(=O)[C@@H](N)Cc1ccc(O)cc1)C(=O)N[C@@H](CCCNC(=N)N)C(=O)N[C@@H](Cc1ccccc1)C(N)=O [KISSPEPTIN-10] | 82 pM |  | 49 pM |  | 0.9% | < 0.5% | < 0.5% |  | < 0.0167 h | > 50%
CNC(N)=NCCC[C@H](NC(=O)[C@H](CC(C)C)NC(=O)NNC(=O)[C@H](Cc1ccccc1)NC(=O)[C@H](CO)NC(=O)[C@H](CC(N)=O)NC(=O)[C@@H](Cc1c[nH]c2ccccc12)NC(=O)[C@H](CC(N)=O)NC(=O)[C@H](N)Cc1ccc(O)cc1)C(=O)N[C@@H](Cc1ccccc1)C(N)=O | 190 pM |  | 72 pM | 56.4% |  |  |  |  |  | 
CNC(N)=NCCC[C@H](NC(=O)[C@H](CC(C)C)NC(=O)CNC[C@H](Cc1ccccc1)NC(=O)[C@H](CO)NC(=O)[C@H](CC(N)=O)NC(=O)[C@H](Cc1c[nH]c2ccccc12)NC(=O)[C@H](CC(N)=O)NC(=O)[C@H](N)Cc1ccc(O)cc1)C(=O)N[C@@H](Cc1ccccc1)C(N)=O | 610 pM | 1400 pM | 620 pM | 12.1% |  |  |  |  |  | 
